Reference: ChEMBL document CHEMBL3580646, “SAR and Structural Analysis of Siderophore-Conjugated Monocarbam Inhibitors of Pseudomonas aeruginosa PBP3” (ACS Med Chem Lett, 2015)
Values after ≈ are worked out from the molar mass of the structure shown.

Experiments:
[1] = Unbound fraction in human plasma after 16 hrs by LC-MS/MS analysis
Pseudomonas aeruginosa [2] = assay: Antibacterial activity against Pseudomonas aeruginosa PAO1 by broth microdilution method; type: functional
Pseudomonas aeruginosa [3] = assay: Activity of Pseudomonas aeruginosa PBP3 assessed as acylation rate constant
[4] = Half life of the compound at pH 7.4 at 37 degC; type: ADME
Pseudomonas aeruginosa [5] = assay: Antibacterial activity against Pseudomonas aeruginosa; type: functional
[6] = Clearance in Han Wistar rat at 1 mg/kg, iv; type: ADME, organism-based; conditions: in vivo
[7] = Half life in Han Wistar rat at 1 mg/kg, iv; type: ADME, organism-based; conditions: in vivo
[8] = Volume of distribution at steady state in Han Wistar rat at 1 mg/kg, iv; type: ADME, organism-based; conditions: in vivo, read-out: Vdss

| Structure (SMILES) | fraction unbound at 16 h [1] | MIC (Pseudomonas aeruginosa [2]) [µg/mL] | K (Pseudomonas aeruginosa [3]) | half-life [4] [h] | MIC90 (Pseudomonas aeruginosa [5]) [µg/mL] | clearance [6] [mL/min/kg] | half-life [7] [h] | Vd [8] [L/kg] |
| --- | --- | --- | --- | --- | --- | --- | --- | --- |
| C[C@H]1[C@H](NC(=O)/C(=N\OC(C)(C)C(=O)O)c2csc(N)n2)C(=O)N1C(=O)NS(=O)(=O)n1nc(-c2cc(=O)c(O)cn2O)n(CCCS(C)(=O)=O)c1=O | 0.12 | 4 (≈ 5.06 µM) | 1.5 ×10⁵ /M/s | 82 | – | – | – | – |
| C[C@H]1[C@H](NC(=O)/C(=N\OC(C)(C)C(=O)O)c2csc(N)n2)C(=O)N1C(=O)NS(=O)(=O)n1nc(-c2cc(=O)c(O)c[nH]2)n(CCNS(C)(=O)=O)c1=O | 0.08 | 0.5 (≈ 0.645 µM) | 4.1 ×10⁵ /M/s | 61 | – | – | – | – |
| CC(C)(O/N=C(\C(=O)N[C@H]1CN(C(=O)NS(=O)(=O)n2nc(-c3cc(=O)c(O)c[nH]3)n(C[C@@H](O)CO)c2=O)C1=O)c1csc(N)n1)C(=O)O | 0.06 | 0.78 (≈ 1.09 µM) | 8.1 ×10⁵ /M/s | – | – | – | – | – |
| C[C@H]1[C@H](NC(=O)/C(=N\OC(C)(C)C(=O)O)c2csc(N)n2)C(=O)N1C(=O)NS(=O)(=O)n1nc(-c2cc(=O)c(O)c[nH]2)n(C[C@@H](O)CS(C)(=O)=O)c1=O | 0.04 | 1 (≈ 1.26 µM) | 5.4 ×10⁵ /M/s | 87 | – | – | – | – |
| C[C@H]1[C@H](NC(=O)/C(=N\OC(C)(C)C(=O)O)c2csc(N)n2)C(=O)N1S(=O)(=O)O [AZTREONAM] | – | 4 (≈ 9.19 µM) | – | – | ≥ 1020 | – | – | – |
| C[C@H]1[C@H](NC(=O)/C(=N\OC(C)(C)C(=O)O)c2csc(N)n2)C(=O)N1C(=O)NS(=O)(=O)n1nc(-c2cc(=O)c(O)c[nH]2)n(CCCS(C)(=O)=O)c1=O | 0.09 | 0.25 (≈ 0.323 µM) | 1.7 ×10⁵ /M/s | 93 | – | 7.3 | 3 | 0.21 |
| C[C@H]1[C@H](NC(=O)/C(=N\OC(C)(C)C(=O)O)c2csc(N)n2)C(=O)N1C(=O)NS(=O)(=O)n1nc(-c2cc(=O)c(O)c[nH]2)n(CCCCS(C)(=O)=O)c1=O | 0.07 | 0.25 (≈ 0.317 µM) | 6.2 ×10⁵ /M/s | 100 | – | – | – | – |
| C[C@H]1[C@H](NC(=O)/C(=N\OC(C)(C)C(=O)O)c2nsc(N)n2)C(=O)N1C(=O)NS(=O)(=O)n1nc(-c2cc(=O)c(O)c[nH]2)n(CCCS(C)(=O)=O)c1=O | 0.27 | 0.25 (≈ 0.322 µM) | 5 ×10⁵ /M/s | 85 | – | 9.5 | 2 | 0.26 |
| CC[C@H]1[C@H](NC(=O)/C(=N\OC(C)(C)C(=O)O)c2csc(N)n2)C(=O)N1C(=O)NS(=O)(=O)n1nc(-c2cc(=O)c(O)c[nH]2)n(CCCS(C)(=O)=O)c1=O | – | 0.5 (≈ 0.634 µM) | 3.6 ×10⁵ /M/s | 98 | – | 12 | 2 | 0.35 |
| C[C@H]1[C@H](NC(=O)/C(=N\OC(C)(C)C(=O)O)c2csc(N)n2)C(=O)N1C(=O)NS(=O)(=O)n1nc(-c2cc(=O)c(O)c[nH]2)n(CCS(N)(=O)=O)c1=O | – | < 0.6 | > 4 ×10⁵ /M/s | 102 | – | – | – | – |
| CCC[C@@H]1[C@H](NC(=O)/C(=N\OC(C)(C)C(=O)O)c2csc(N)n2)C(=O)N1C(=O)NS(=O)(=O)n1nc(-c2cc(=O)c(O)c[nH]2)n(CCCS(C)(=O)=O)c1=O | – | 4 (≈ 4.98 µM) | 7.4 ×10⁵ /M/s | > 150 | – | – | – | – |
| C[C@H]1[C@H](NC(=O)/C(=N\OC(C)(C)C(=O)O)c2csc(N)n2)C(=O)N1C(=O)NS(=O)(=O)n1nc(-c2cc(=O)c(O)c[nH]2)n(C[C@@H](O)CO)c1=O | 0.04 | 0.25 (≈ 0.343 µM) | 7.2 ×10⁵ /M/s | 117 | – | – | – | – |
| C[C@H]1[C@H](NC(=O)/C(=N\OC(C)(C)C(=O)O)c2csc(N)n2)C(=O)N1C(=O)NS(=O)(=O)n1nc(-c2cc(=O)c(O)c[nH]2)n(CCCNS(C)(=O)=O)c1=O | 0.08 | 0.5 (≈ 0.633 µM) | 3 ×10⁵ /M/s | – | – | – | – | – |
| C[C@@H]1[C@H](NC(=O)/C(=N\OC(C)(C)C(=O)O)c2csc(N)n2)C(=O)N1C(=O)NS(=O)(=O)n1nc(-c2cc(=O)c(O)c[nH]2)n(CCCS(C)(=O)=O)c1=O | – | 1 (≈ 1.29 µM) | 1.6 ×10⁵ /M/s | 76 | – | – | – | – |
| C=C[C@@H]1[C@H](NC(=O)/C(=N\OC(C)(C)C(=O)O)c2csc(N)n2)C(=O)N1C(=O)NS(=O)(=O)n1nc(-c2cc(=O)c(O)c[nH]2)n(CCCS(C)(=O)=O)c1=O | – | 2 (≈ 2.54 µM) | 1.9 ×10⁵ /M/s | 38 | – | – | – | – |
| C[C@H]1[C@H](NC(=O)/C(=N\OC(C)(C)C(=O)O)c2nc(N)sc2Cl)C(=O)N1C(=O)NS(=O)(=O)n1nc(-c2cc(=O)c(O)c[nH]2)n(CCCS(C)(=O)=O)c1=O | 0.06 | 1 (≈ 1.24 µM) | 3.2 ×10⁵ /M/s | 118 | – | – | – | – |
| C=C[C@H]1[C@H](NC(=O)/C(=N\OC(C)(C)C(=O)O)c2csc(N)n2)C(=O)N1C(=O)NS(=O)(=O)n1nc(-c2cc(=O)c(O)c[nH]2)n(CCCS(C)(=O)=O)c1=O | – | 0.5 (≈ 0.635 µM) | 2.1 ×10⁵ /M/s | 53 | – | 11 | 2 | 0.18 |
| C=CC[C@@H]1[C@H](NC(=O)/C(=N\OC(C)(C)C(=O)O)c2csc(N)n2)C(=O)N1C(=O)NS(=O)(=O)n1nc(-c2cc(=O)c(O)c[nH]2)n(CCCS(C)(=O)=O)c1=O | – | 8 (≈ 9.99 µM) | 5.9 ×10⁵ /M/s | 126 | – | – | – | – |
| C[C@H]1[C@H](NC(=O)/C(=N\OC(C)(C)C(=O)O)c2csc(N)n2)C(=O)N1C(=O)NS(=O)(=O)n1nc(-c2cc(=O)c(O)c[nH]2)n(CCCS(=O)(=O)c2ccccc2)c1=O | 0.03 | 1 (≈ 1.19 µM) | > 4 ×10⁵ /M/s | > 150 | – | – | – | – |
| C[C@H]1[C@H](NC(=O)/C(=N\OC(C)(C)C(=O)O)c2csc(N)n2)C(=O)N1C(=O)NS(=O)(=O)n1nc(-c2cc(=O)c(O)cn2O)n(CCS(C)(=O)=O)c1=O | 0.2 | 1 (≈ 1.29 µM) | 2.5 ×10⁵ /M/s | 102 | – | – | – | – |
| C[C@H]1[C@H](NC(=O)/C(=N\OC(C)(C)C(=O)O)c2csc(N)n2)C(=O)N1C(=O)NS(=O)(=O)n1nc(-c2cc(=O)c(O)c[nH]2)n(CC2(CS(C)(=O)=O)CC2)c1=O | 0.09 | 0.5 (≈ 0.624 µM) | 2.5 ×10⁵ /M/s | 71 | – | – | – | – |
| CC[C@@H]1[C@H](NC(=O)/C(=N\OC(C)(C)C(=O)O)c2csc(N)n2)C(=O)N1C(=O)NS(=O)(=O)n1nc(-c2cc(=O)c(O)c[nH]2)n(CCCS(C)(=O)=O)c1=O | – | 1 (≈ 1.27 µM) | 8.8 ×10⁵ /M/s | 94 | – | – | – | – |
| C[C@H]1[C@H](NC(=O)/C(=N\OC(C)(C)C(=O)O)c2csc(N)n2)C(=O)N1C(=O)NS(=O)(=O)n1nc(-c2cc(=O)c(O)c[nH]2)n(CCS(C)(=O)=O)c1=O | 0.06 | 0.13 (≈ 0.171 µM) | 3.2 ×10⁵ /M/s | 86 | 1 (≈ 1.31 µM) | 8.9 | 2.5 | 0.23 |
| C[C@@H](O)[C@H]1C(=O)N2C(C(=O)O)=C(S[C@@H]3CN[C@H](C(=O)N(C)C)C3)[C@H](C)[C@H]12 [MEROPENEM] | – | 1 (≈ 2.61 µM) | 4.9 ×10⁴ /M/s | 95 | – | – | – | – |
| CC(C)(O/N=C(\C(=O)N[C@@H]1C(=O)N(C(=O)NS(=O)(=O)n2nc(-c3cc(=O)c(O)c[nH]3)n(CCCS(C)(=O)=O)c2=O)C1(C)C)c1csc(N)n1)C(=O)O | – | 8 (≈ 10.1 µM) | 1.1 ×10⁵ /M/s | > 150 | – | – | – | – |
| C[C@H]1[C@H](NC(=O)/C(=N\OC(C)(C)C(=O)O)c2csc(N)n2)C(=O)N1C(=O)NS(=O)(=O)n1nc(-c2cc(=O)c(O)c[nH]2)n(CCC2(S(C)(=O)=O)CC2)c1=O | 0.04 | 0.5 (≈ 0.624 µM) | 4.5 ×10⁵ /M/s | 94 | – | – | – | – |
| Cn1c(-c2cc(=O)c(O)c[nH]2)nn(S(=O)(=O)NC(=O)N2C[C@H](NC(=O)/C(=N\OC(C)(C)C(=O)O)c3csc(N)n3)C2=O)c1=O | 0.05 | 0.78 (≈ 1.19 µM) | 1.7 ×10⁵ /M/s | – | – | – | – | – |
